The source of these data is patent US10968225B2, “Compounds and compositions for the treatment of cystic fibrosis” (Fondazione Istituto Italiano Di Tecnologia, priority 2017, dated 2021).

Usually EC50 stands for the concentration giving half of the maximal effect.

Structures can show the parent of a compound that is named as a salt.

T1 sequence (P13569 with tags, fused parts or gaps DEL508-508): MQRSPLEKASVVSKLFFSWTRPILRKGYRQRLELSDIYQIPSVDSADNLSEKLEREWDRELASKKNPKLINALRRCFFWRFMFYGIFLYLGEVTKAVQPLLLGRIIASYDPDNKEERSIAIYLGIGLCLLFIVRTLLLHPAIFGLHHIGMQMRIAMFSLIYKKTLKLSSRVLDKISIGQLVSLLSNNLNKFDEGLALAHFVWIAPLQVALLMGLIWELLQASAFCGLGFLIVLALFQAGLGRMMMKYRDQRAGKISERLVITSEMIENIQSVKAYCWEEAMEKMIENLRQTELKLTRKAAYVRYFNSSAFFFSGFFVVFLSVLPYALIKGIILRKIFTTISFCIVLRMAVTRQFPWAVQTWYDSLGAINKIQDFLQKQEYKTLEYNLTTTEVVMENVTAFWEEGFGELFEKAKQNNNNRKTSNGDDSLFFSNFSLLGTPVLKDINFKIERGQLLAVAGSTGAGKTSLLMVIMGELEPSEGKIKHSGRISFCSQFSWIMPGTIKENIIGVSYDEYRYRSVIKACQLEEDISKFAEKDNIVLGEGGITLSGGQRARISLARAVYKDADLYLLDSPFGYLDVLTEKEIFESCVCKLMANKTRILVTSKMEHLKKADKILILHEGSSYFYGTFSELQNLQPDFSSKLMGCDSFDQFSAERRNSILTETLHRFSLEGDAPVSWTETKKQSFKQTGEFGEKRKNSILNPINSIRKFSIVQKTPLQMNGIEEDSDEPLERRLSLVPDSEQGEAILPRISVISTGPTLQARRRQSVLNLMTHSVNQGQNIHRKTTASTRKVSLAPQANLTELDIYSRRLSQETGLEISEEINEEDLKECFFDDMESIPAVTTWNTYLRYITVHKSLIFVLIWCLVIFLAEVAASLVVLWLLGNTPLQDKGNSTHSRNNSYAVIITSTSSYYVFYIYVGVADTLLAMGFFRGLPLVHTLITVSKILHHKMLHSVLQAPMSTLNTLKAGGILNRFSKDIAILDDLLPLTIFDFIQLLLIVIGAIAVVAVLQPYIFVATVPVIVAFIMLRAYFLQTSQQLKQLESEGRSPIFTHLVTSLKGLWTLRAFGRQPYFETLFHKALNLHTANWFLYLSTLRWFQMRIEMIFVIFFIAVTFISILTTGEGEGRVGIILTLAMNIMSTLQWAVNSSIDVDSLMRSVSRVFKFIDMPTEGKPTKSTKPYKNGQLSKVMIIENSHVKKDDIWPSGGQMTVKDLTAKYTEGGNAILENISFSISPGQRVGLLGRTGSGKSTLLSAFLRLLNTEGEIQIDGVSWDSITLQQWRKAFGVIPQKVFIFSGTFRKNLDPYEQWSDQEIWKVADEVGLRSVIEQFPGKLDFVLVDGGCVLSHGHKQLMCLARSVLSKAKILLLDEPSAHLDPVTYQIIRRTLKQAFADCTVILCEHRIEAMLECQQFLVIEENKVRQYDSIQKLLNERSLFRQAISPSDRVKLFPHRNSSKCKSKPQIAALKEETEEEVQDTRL

This test addresses T1, mutant CFTR (Homo sapiens, UniProt P13569, DEL508-508).
T1 construct: expressed in transfected cells
In words: Fluorescence (HS-YFP) assay for CFTR activity, corrector assay. It is filed as cell-based. The conditions noted are these: CFBE41o- and FRT cells with stable expression of mutant CFTR, read-out: activity (EC50).
For `CC(C)N1CCc2c(c(C(F)(F)F)nn2-c2cccc(C(=O)N(C)c3ccc4c(c3)OCO4)c2)C1` [Compound 021, N-(1,3-Benzodioxol-5-yl)-3-[5-isopropyl-3-(trifluoromethyl)-6,7-dihydro-4H-pyrazolo[4,3-c]pyridin-1-yl]-N-methyl-benzamide], the EC50 was below 1000 nM.

Regarding `CN(C(=O)c1cccc(-n2nc(C(F)(F)F)c3c2CCN(Cc2cccc(C(=O)O)c2)C3)c1)c1ccc2c(c1)OCO2` [Compound 025, 3-[[1-[3-[1,3-Benzodioxol-5-yl(methyl)carbamoyl]phenyl]-3-(trifluoromethyl)-6,7-dihydro-4H-pyrazolo[4,3-c]pyridin-5-yl]methyl]benzoic acid], the EC50 was below 1000 nM.

Consider `CN(C(=O)c1cccc(-n2nc(C(F)(F)F)c3c2CCN(Cc2ccc(C(=O)O)cc2)C3)c1)c1ccc2c(c1)OCO2` [Compound 026, 4-[[1-[3-[1,3-Benzodioxol-5-yl(methyl)carbamoyl]phenyl]-3-(trifluoromethyl)-6,7-dihydro-4H-pyrazolo[4,3-c]pyridin-5-yl]methyl]benzoic acid], for which the EC50 was below 1000 nM.

Regarding `CN(C(=O)c1cccc(-n2nc(C(F)(F)F)c3c2CN(C(=O)OC(C)(C)C)CC3)c1)c1ccc2c(c1)OCO2` [Compound 027, tert-Butyl 1-[3-[1,3-benzodioxol-5-yl(methyl)carbamoyl]phenyl]-3-(trifluoromethyl)-5,7-dihydro-4H-pyrazolo[3,4-c]pyridine-6-carboxylate], the 50% effective concentration (EC50) was below 1000 nM.

`CN(C(=O)c1cccc(-n2nc(C(F)(F)F)c3c2CCCN3C(=O)OC(C)(C)C)c1)c1ccc2c(c1)OCO2` [Compound 028, tert-Butyl 1-[3-[1,3-benzodioxol-5-yl(methyl)carbamoyl]phenyl]-3-(trifluoromethyl)-6,7-dihydro-5H-pyrazolo[4,3-b]pyridine-4-carboxylate]: the EC50 is below 1000 nM.

With `CN1CCc2c(C(F)(F)F)nn(-c3cccc(C(=O)N(C)c4ccc5c(c4)OCO5)c3)c2C1` [Compound 029, N-(1,3-Benzodioxol-5-yl)-N-methyl-3-[6-methyl-3-(trifluoromethyl)-5,7-dihydro-4H-pyrazolo[3,4-c]pyridin-1-yl]benzamide], the concentration for a half-maximal effect (EC50) was below 1000 nM.

`Cc1nc2ccc(N(C)C(=O)c3cccc(-n4nc(C(F)(F)F)c5c4CCNC5)c3)cc2o1` [Compound 030, N-Methyl-N-(2-methyl-1,3-benzoxazol-6-yl)-3-[3-(trifluoromethyl)-4,5,6,7-tetrahydropyrazolo[4,3-c]pyridin-1-yl]benzamide hydrochloride]: the concentration giving a half-maximal response (EC50) was 1000 to 2000 nM.

Take `CC(C)C(=O)N1CCc2c(c(C(F)(F)F)nn2-c2cccc(C(=O)N(C)c3ccc4c(c3)OCO4)c2)C1` [Compound 031, N-(1,3-Benzodioxol-5-yl)-N-methyl-3-[5-(2-methylpropanoyl)-3-(trifluoromethyl)-6,7-dihydro-4H-pyrazolo[4,3-c]pyridin-1-yl]benzamide]: the EC50 is below 1000 nM.

For the molecule `CN(C(=O)c1cccc(-n2nc(C(F)(F)F)c3c2CCN(C(=O)C(C)(C)C(F)(F)F)C3)c1)c1ccc2c(c1)OCO2` [Compound 033, N-(1,3-Benzodioxol-5-yl)-N-methyl-3-[5-(3,3,3-trifluoro-2,2-dimethyl-propanoyl)-3-(trifluoromethyl)-6,7-dihydro-4H-pyrazolo[4,3-c]pyridin-1-yl]benzamide], the 50% effective concentration (EC50) is below 1000 nM.

Turning to `CN(C(=O)c1cccc(-n2nc(C(F)(F)F)c3c2CCN(C(=O)C2(O)CC2)C3)c1)c1ccc2c(c1)OCO2` [Compound 034, N-(1,3-Benzodioxol-5-yl)-3-[5-(1-hydroxycyclopropanecarbonyl)-3-(trifluoromethyl)-6,7-dihydro-4H-pyrazolo[4,3-c]pyridin-1-yl]-N-methyl-benzamide], the half-maximal effective concentration (EC50) was below 1000 nM.

Take `CN(C(=O)c1cccc(-n2nc(C(F)(F)F)c3c2CCN(C(=O)C(C)(C)c2ccccc2)C3)c1)c1ccc2c(c1)OCO2` [Compound 035, N-(1,3-Benzodioxol-5-yl)-N-methyl-3-[5-(2-methyl-2-phenyl-propanoyl)-3-(trifluoromethyl)-6,7-dihydro-4H-pyrazolo[4,3-c]pyridin-1-yl]benzamide]: the EC50 is below 1000 nM.

`Cc1nc2cc(F)c(N(C)C(=O)c3cccc(-n4nc(C(F)(F)F)c5c4CCN(C(=O)OC(C)(C)C)C5)c3)cc2o1` [Compound 036, tert-Butyl 1-[3-[(5-fluoro-2-methyl-1,3-benzoxazol-6-yl)-methylcarbamoyl]phenyl]-3-(trifluoromethyl)-6,7-dihydro-4H-pyrazolo[4,3-c]pyridine-5-carboxylate]: the 50% effective concentration (EC50) is below 1000 nM.

On to `Cc1nc2cc(F)c(NC(=O)c3cccc(-n4nc(C(F)(F)F)c5c4CCN(C(=O)OC(C)(C)C)C5)c3)cc2o1` [Compound 037, tert-Butyl 1-[3-[(5-fluoro-2-methyl-1,3-benzoxazol-6-yl)carbamoyl]phenyl]-3-(trifluoromethyl)-6,7-dihydro-4H-pyrazolo[4,3-c]pyridine-5-carboxylate], for which the EC50 was above 2000 nM.

As to `CN(C(=O)c1cccc(-n2nc(C(F)(F)F)c3c2CNCC3)c1)c1ccc2c(c1)OCO2` [Compound 038, N-(1,3-Benzodioxol-5-yl)-N-methyl-3-[3-(trifluoromethyl)-4,5,6,7-tetrahydropyrazolo[3,4-c]pyridin-1-yl] benzamide hydrochloride], the EC50 was below 1000 nM.

As to `Cc1nc2ccc(N(C)C(=O)c3cccc(-n4nc(C(F)(F)F)c5c4CCN(C(=O)OC(C)(C)C)C5)c3)cc2o1` [Compound 039, tert-Butyl 1-[3-[methyl-(2-methyl-1,3-benzoxazol-6-yl)carbamoyl]phenyl]-3-(trifluoromethyl)-6,7-dihydro-4H-pyrazolo[4,3-c]pyridine-5-carboxylate], the concentration giving a half-maximal response (EC50) was below 1000 nM.

Regarding `Cc1nc2ccc(N(C)C(=O)c3cccc(-n4nc(C(F)(F)F)c5c4CCN(C)C5)c3)cc2o1` [Compound 040, N-Methyl-N-(2-methyl-1,3-benzoxazol-6-yl)-3-[5-methyl-3-(trifluoromethyl)-6,7-dihydro-4H-pyrazolo[4,3-c]pyridin-1-yl]benzamide], the EC50 is below 1000 nM.

As for `CC(=O)Nc1ccc(N(C)C(=O)c2cccc(-n3nc(C(F)(F)F)c4c3CCN(C)C4)c2)cc1O` [Compound 041, N-(4-Acetamido-3-hydroxy-phenyl)-N-methyl-3-[5-methyl-3-(trifluoromethyl)-6,7-dihydro-4H-pyrazolo[4,3-c]pyridin-1-yl]benzamide], the EC50 is above 2000 nM.

Turning to `COC(=O)c1ccc(C(=O)N2CCc3c(c(C(F)(F)F)nn3-c3cccc(C(=O)N(C)c4ccc5c(c4)OCO5)c3)C2)cc1` [Compound 042, Methyl 4-[1-[3-[1,3-benzodioxol-5-yl(methyl)carbamoyl]phenyl]-3-(trifluoromethyl)-6,7-dihydro-4H-pyrazolo[4,3-c]pyridine-5-carbonyl]benzoate], the 50% effective concentration (EC50) was below 1000 nM.

As for `CN(C(=O)c1cccc(-n2nc(C(F)(F)F)c3c2CCN(C(=O)c2ccc(C(=O)O)cc2)C3)c1)c1ccc2c(c1)OCO2` [Compound 044, 4-[1-[3-[1,3-Benzodioxol-5-yl(methyl)carbamoyl]phenyl]-3-(trifluoromethyl)-6,7-dihydro-4H-pyrazolo[4,3-c]pyridine-5-carbonyl]benzoic acid], the half-maximal effective concentration (EC50) was above 2000 nM.
